# Assay results reported in ChEMBL document CHEMBL1145560, “Use of receptor chimeras to identify small molecules with high affinity for the dynorphin A binding domain of the kappa opioid receptor” (Bioorg Med Chem Lett, 2008).
# Assays:
# Mu-type opioid receptor = Mu-type opioid receptor (Homo sapiens, UniProt P35372); assay: Displacement of [3H]diprenorphine from human mu opioid receptor expressed in CHO-K1 cells; assay type: cell-based
# [1] = target: T1, Kappa-type opioid receptor (Homo sapiens, UniProt P41145); assay: Agonist activity at human kappa opioid receptor transfected in CHO cells by [35S]GTP-gamma-S binding assay; assay type: functional, cell-based
# T1 sequence (P41145 whole entry): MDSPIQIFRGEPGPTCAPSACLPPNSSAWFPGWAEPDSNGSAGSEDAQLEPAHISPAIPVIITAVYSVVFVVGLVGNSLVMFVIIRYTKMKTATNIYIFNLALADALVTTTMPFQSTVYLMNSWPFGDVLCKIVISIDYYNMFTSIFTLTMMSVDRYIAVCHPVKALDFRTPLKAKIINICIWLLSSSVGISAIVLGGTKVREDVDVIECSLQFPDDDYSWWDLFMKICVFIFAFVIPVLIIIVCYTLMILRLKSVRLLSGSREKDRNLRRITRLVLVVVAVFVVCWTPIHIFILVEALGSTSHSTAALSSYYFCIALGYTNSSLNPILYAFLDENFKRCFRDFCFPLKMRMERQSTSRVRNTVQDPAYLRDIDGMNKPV
# [2] = target: T1, Kappa-type opioid receptor; assay: Displacement of [3H]diprenorphine from human kappa opioid receptor expressed in CHO-K1 cells; assay type: cell-based
# [3] = target: Delta-type opioid receptor (Homo sapiens, UniProt P41143); assay: Displacement of [3H]diprenorphine from human delta opioid receptor expressed in CHO-K1 cells; assay type: cell-based
# Sequence of Delta-type opioid receptor (P41143 whole entry): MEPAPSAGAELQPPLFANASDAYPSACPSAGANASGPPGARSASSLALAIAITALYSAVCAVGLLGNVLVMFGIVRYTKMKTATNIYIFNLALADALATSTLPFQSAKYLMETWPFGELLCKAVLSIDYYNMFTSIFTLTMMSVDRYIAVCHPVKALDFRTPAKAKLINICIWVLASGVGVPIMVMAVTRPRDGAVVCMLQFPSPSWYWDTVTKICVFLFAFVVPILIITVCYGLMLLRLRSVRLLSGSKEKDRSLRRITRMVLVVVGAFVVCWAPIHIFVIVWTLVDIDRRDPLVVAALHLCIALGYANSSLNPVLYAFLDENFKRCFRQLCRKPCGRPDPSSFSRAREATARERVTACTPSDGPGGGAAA
# [4] = Displacement of [3H]diprenorphine from human kappa/mu opioid chimera 3 receptor
# [5] = Displacement of [3H]diprenorphine from human kappa/mu opioid chimera 4 receptor
# Sequence of Mu-type opioid receptor (P35372 whole entry): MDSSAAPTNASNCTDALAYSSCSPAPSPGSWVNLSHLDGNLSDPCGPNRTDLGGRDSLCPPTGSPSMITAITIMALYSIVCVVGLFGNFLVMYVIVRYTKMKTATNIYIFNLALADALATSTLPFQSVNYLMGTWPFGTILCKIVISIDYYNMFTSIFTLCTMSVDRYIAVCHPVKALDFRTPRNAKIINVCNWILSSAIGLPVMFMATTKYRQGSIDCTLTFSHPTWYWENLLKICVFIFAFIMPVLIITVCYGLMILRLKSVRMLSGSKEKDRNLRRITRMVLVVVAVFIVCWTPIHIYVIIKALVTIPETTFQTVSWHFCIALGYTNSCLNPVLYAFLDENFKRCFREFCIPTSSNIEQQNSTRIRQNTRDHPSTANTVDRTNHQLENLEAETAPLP
Compound,Ki (Mu-type opioid receptor) [nM],EC50 [1] [nM],Ki [2] [nM],Ki [3] [nM],Ki [4] [nM],Ki [5] [nM]
COc1cc(CC(=O)N(C)[C@H](CN2CC[C@H](O)C2)c2ccccc2)c(S(=O)(=O)N2CCN(C)CC2)cc1OC,27,0.71,3.8,4.4,,
COc1cc(CC(=O)N(C)[C@H](CN2CCCC2)c2ccccc2)c(S(=O)(=O)N(C)C)cc1OC,42,0.26,0.5,56,3.2,2.5
COc1cc(CC(=O)N(C)[C@H](CN2CC[C@H](O)C2)c2ccccc2)c(S(=O)(=O)N(C)C)cc1OC,25,0.24,1.6,9.3,6.4,2.8
CN(C(=O)Cc1cc2c(cc1S(=O)(=O)N(C)C)OCO2)[C@H](CN1CC[C@H](O)C1)c1ccccc1,34,0.11,0.54,6.2,4.5,0.5
CN(C(=O)Cc1cc2c(cc1S(=O)(=O)N(C)Cc1ccccc1)OCO2)[C@H](CN1CCCC1)c1ccccc1,6.5,0.12,0.19,3.4,5.5,1.7
COc1cc(CC(=O)N(C)[C@H](CN2CC[C@H](O)C2)c2ccccc2)c(S(=O)(=O)N2CCCC2)cc1OC,5.9,0.12,1.1,0.85,38,8.3
COc1cc(CC(=O)N(C)[C@H](CN2CCCC2)c2ccccc2)c(S(=O)(=O)N(C)Cc2ccccc2)cc1OC,21,0.54,0.68,1.5,3.3,4.8
CN(C(=O)Cc1cc2c(cc1S(=O)(=O)N(C)C)OCO2)[C@H](CN1CCCC1)c1ccccc1,47,0.1,0.22,110,5.2,0.71
COc1cc(CC(=O)N(C)[C@H](CN2CCCC2)c2ccccc2)c(S(=O)(=O)N2CCOCC2)cc1OC,15,0.17,0.55,9.4,1.3,2.2
COc1cc(CC(=O)N(C)[C@H](CN2CCCC2)c2ccccc2)c(S(=O)(=O)N2CCCC2)cc1OC,14,0.11,0.31,5.4,1.5,1.2
COc1cc(CC(=O)N(C)[C@H](CN2CC[C@H](O)C2)c2ccccc2)c(S(=O)(=O)N2CCOCC2)cc1OC,9,0.34,1.4,1.8,,
COc1cc(CC(=O)N(C)[C@H](CN2CCCC2)c2ccccc2)c(S(=O)(=O)N2CCN(C)CC2)cc1OC,52,0.39,,23,4.8,6.8
CC[C@H](C)[C@H](NC(=O)[C@H](CCCNC(=N)N)NC(=O)[C@H](CCCNC(=N)N)NC(=O)[C@H](CC(C)C)NC(=O)[C@H](Cc1ccccc1)NC(=O)CNC(=O)CNC(=O)[C@@H](N)Cc1ccc(O)cc1)C(=O)N[C@@H](CCCNC(=N)N)C(=O)N1CCC[C@H]1C(=O)N[C@@H](CCCCN)C(=O)N[C@@H](CC(C)C)C(=O)N[C@@H](CCCCN)C(=O)N[C@@H](Cc1c[nH]c2ccccc12)C(=O)N[C@@H](CC(=O)O)C(=O)N[C@@H](CC(N)=O)C(=O)N[C@@H](CCC(N)=O)C(=O)O [DYNORPHIN A (1-17)],,,,,0.31,0.18
